Measurements reported in US20040119048A1, “Process of making aqueous perborate bleach composition” (Unilever Home & Personal Care USA, Divison of Conopco, Inc., priority 2002, published 2004).

Assay: Iterative determination of perborate solubility in water and polyol/water (visual appearance, pH)
Type: physicochemical
Description: An iterative process was used to determine the extent of perborate solubilty in water and polyol/water. 1.5 g of Na perborate monohydrate was added either to 100 g of water (Table 1A) or to 90 g water and 10 g sorbitol (70% active) (Table 1B). The mixture was stirred until all of sodium perborate monohydrate was dissolved. A 0.5 g aliquot of sodium perborate monohydrate was then added to the solution while stirring and visually monitored to see if all the added sodium perborate monohydrate dissolves. If the aliquot dissolved, another 0.5 g of sodium perborate monohydrate would be added. This procedure was continued until the added perborate no longer appeared to dissolve.

Question: For `O.O=BO[O-].[Na+]` [Sodium Perborate monohydrate, sodium perborate monohydrate], which “solubility in water in the presence of polyol” value (90 g water + 10 g sorbitol (70%)) is on record?
Answer: up to 8.5 g

Question: And the “increase of perborate solubility by polyol” value (aqueous environment, with polyol vs without)?
Answer: about 400%
